{"source": "patent US12129234B1", "about": "“Crystalline salts of N-ethyl-(5-fluoro-1H-indol-3-yl)-N-methylethan-1-amine” (Gilgamesh Pharmaceuticals, Inc., priority 2023, dated 2024)", "key": {"[1]": {"assay": "Overnight humidity exposure at 30° C./90% relative humidity", "type": "physicochemical", "conditions": "30° C./90% relative humidity (RH)", "procedure": "(§1) Alternatively, after the oil is formed from the evaporation of the ethanol, acetone is added to the oil at a temperature effective to solubilize the oil, ranging from about 30° C. to about 60° C., such as 45° C., and then the resulting mixture is cooled to room temperature. A non-polar antisolvent, such as n-heptane is added to the solution with stirring to form a slurry comprising N-ethyl-2-(5-fluoro-1H-indol-3-yl)-N-methylethan-1-amine monosuccinate, from which a crystalline solid comprising N-ethyl-2-(5-fluoro-1H-indol-3-yl)-N-methylethan-1-amine monosuccinate is crystallized, for example, by seeding, scratching, or aging. The solids are collected by filtration and dried under vacuum."}, "[2]": {"assay": "Stability of the solid upon drying under vacuum", "type": "physicochemical", "conditions": "solids collected by filtration and dried under vacuum", "procedure": "as §1"}}, "data": [{"smiles": "CCN(C)CCc1c[nH]c2ccc(F)cc12.O=C(O)CCC(=O)O", "note": "[N-ethyl-2-(5-fluoro-1H-indol-3-yl)-N-methylethan-1-amine monosuccinate]", "values": [{"measurement": "behaviour after humidity exposure (deliquescence)", "setting": "[1]", "result": "deliquesces"}, {"measurement": "stability upon drying", "setting": "[2]", "result": "stable upon drying"}]}]}
